What was measured:
[1] = system: MYC/BCL2 double positive murine lymphoma cells; test: In vivo treatment of engrafted myc-bcl2 murine lymphomas by intratumoral injection; parameters: species or system J:Nu nude mice
Protocol: FIG. 7A-H. The solHVEM (either Leu39-Va1202 or Pro37-Va1202) protein restores tumor suppressive effects of HVEM.
FIG. 20. sTNFRSF14 inhibits tumor growth in vivo. Xenograft myc-bc12 lymphomas were grown in the flanks of mice. When the tumors reached a volume of approximately 0.5 cm^3 mice were treated every other day by intra-tumoral injection in the flanks with 20 ug/ml of sTNFRSF14diluted in PBS. The control (vehicle) animals were treated with PBS. Tumors were weighed and volumes were measured twice weekly.
FIG. 21. sTNFRSF14 decreases lymphoma growth in a xenograft model. 5 million myc-Bcl2 cells were mixed with Matrigel and injected subcutaneously into the flanks of mice J:Nu Nude (Foxn1 nu/Foxn1 nu) mice. Animals were sacrificed according to IUCAC protocols. Upon sacrifice tumors were weighed and measured.
FIG. 22. Exogenous administration of sTNFRSF14 suppresses mouse lymphoma xenografts. Animals were sacrificed on day day 11 and the xenografted tumors were excised from the flanks of the mice. The tumors from each flank—treated (sTNFRSF14) and untreated (vehicle) were weighed. Bars represent the average of n=4 mice.
FIG. 24. Immunohistochemical analysis of xenograft tumors. Pathological analysis of sTNFRSF14 treated and vehicle treated mouse lymphomas. Tumors were excised from the flanks of the animals and fixed in 4% paraformaldehyde overnight. The tumors were sectioned and stained via IHC for particular tumor markers. Representative staining for HE, TUNEL, and Ki67 is shown.
Building on these findings, experiments were performed to test whether solHVEM would have any single agent activity against lymphomas. First, the expression of the BTLA receptor was characterized across a panel of human and mouse lymphoma (mostly DLBCL) cell lines. […] Next, experiments were performed to test if solHVEM had any effect on established BTLA^hi lymphomas in vivo. Briefly, aggressive MYC/BCL2 double positive murine lymphoma cells that express BTLA (BTLA^hi) were transplanted into the flanks of J:Nu nude mice and mice were treated with 20 μg of solHVEM or vehicle (PBS) every three days for a total four times once the engrafted tumors reached a volume of ˜50 mm3. […] Similar results were obtained both in vitro and in vivo with a different soluble HVEM molecule consisting of the extracellular region from amino acids Pro37 to Va1202 (SEQ ID NO. 6).
Transplant and treatment studies were generated as previously described (Schatz et al., 2011). In summary, subcutaneous injection of one million myc-bcl2 mouse lymphoma cells combined with Matrigel (BD) in the right and left flanks of mice J:Nu Nude (Foxn1 nu/Foxn1 nu). Once tumors reached 75-mm3 mice were treated every three days by intra tumor injection with 20 m of sHVEM diluted in PBS (right flank) or with vehicle control (left flank). Tumor sizes were measured and recorded every three days. Tumors were weighed after the animals were sacrificed and tumors excised.
To study the effects of the sTNFRSF14 polypeptide in vivo, five (5) million myc-bc12 cells were injected into both the right and left flanks of nude mice. Upon formation of palpable tumors treatment was commenced. The treatment comprise injecting mice intra-tumorally with either 20 ug of sTNFRSF14 on the right flank or vehicle on the left flank.

[2] = system: BCR signaling pathway in BCL1 mouse lymphoma cells; test: BTK phosphorylation by flow cytometry in IgM-stimulated BCL1 cells; assay type: cell-based; conditions: solHVEM 10 μg/ml
Protocol: FIG. 4A-E. HVEM blocks BCR signaling in a cell autonomous and BTLA dependent manner. FIG. 4A and FIG. 4B, Quantification of FACS analysis of phosphorylated BTK (pBTK) expression in BCL1 cells after stimulation with anti-IgM in the presence of solHVEM (10 μg/m1) or Ibrutinib (10 nM) without (FIG. 4A) or with (FIG. 4B) the knockdown of BTLA (shBTLA); FIG. 4C, FACS analysis of BTLA expression on purified primary human FL B cells distinguishes samples with high (BTLA^hi) and low (BTLAlo) surface BTLA expression); FIG. 4D, FACS analysis for the indicated signaling molecules in human primary FL B cells that were BTLA^hi or BTLAlo and stimulated with anti-human IgG (3 min; 10 μg/ml and H2O2 1 mM) in the presence or absence of the soluble HVEM ectodomain (solHVEM; 10 μg/ml) (right); FIG. 4E, Percentage of pSyk inhibition was calculated by comparing the ratio of MFI of pSyk+/−solHVEM and was correlated to BTLA ratio of MFI (r=0.697, p=0.03, Purified FL B cells, n=10, grade 1 and grade 2).
Loss of HVEM and BTLA leads to BCR activation in murine lymphomas (FIGS. 2G and 3F). […] Briefly, the BCR signaling pathway in BCL1 mouse lymphoma cells was stimulated with IgM in the presence or absence of solHVEM (10 μg/ml) or the pharmacological BTK inhibitor ibrutinib (10 nM) and BTK phosphorylation was measured as an indicator of BCR pathway activation by flow cytometry. […]

[3] = 20 μg intratumoral every three days
[4] = compared to vehicle-treated tumors

| Molecule | ERK inhibition in tumors by immunoblot [1, 3] | apoptosis by TUNEL stain in tumors [1, 3] | tumor growth ([1]; 20 μg intratumoral every three days, four times, n=4, p<0.01) | BTK phosphorylation and activation ([2]; BCL1 cells stimulated with IgM) | BTK inhibition with knockdown of BTLA ([2]; BCL1 cells with shBTLA) | tumor growth ([1]; 20 ug intra-tumoral, right flank, vehicle left flank) | tumor weight ([1]; 11 days after treatment initiation, average, 20 ug intra-tumoral) | TUNEL staining in tumors [1, 4] | levels of phosphorylated ERK in tumors [1, 4] | proliferation marker Ki67 in tumors [1, 4] |
| --- | --- | --- | --- | --- | --- | --- | --- | --- | --- | --- |
| solHVEM: Leu39-Val202 soluble HVEM ectodomain polypeptide of SEQ ID NO. 8 | ERK inhibition | abundant apoptosis | prevented any further tumor growth | blocked BTK phosphorylation and activation | knockdown of BTLA prevented BTK inhibition |  |  |  |  |  |
| sTNFRSF14: Pro37-Val202 soluble HVEM ectodomain polypeptide of SEQ ID NO. 6 (protein, listed as Homo sapiens) PALPSCKEDEYPVGSECCPKCSPGYRVKEACGELTGTVCEPCPPGTYIAHLNGLSKCLQCQMCDPAMGLRASRNCSRTENAVCGCSPGHFCIVQDGDHCAACRAYATSSPGQRVQKGGTESQDTLCQNCPPGTFSPNGTLEECQHQTKCSWLVTKAGAGTSSSHWV |  |  |  |  |  | near complete growth delay | 0.75 grams | higher levels | reduced levels | decrease |

— patent publication US11261232B2, “TNFRSF14 / HVEM proteins and methods of use thereof” (MEMORIAL SLOAN KETTERING CANCER CENTER, priority 2015, dated 2022)
